Measured values from EP3053944B1, “METHOD FOR PRODUCING POLYALKYLENE GLYCOL DERIVATIVE HAVING AMINO GROUP AT END, POLYMERIZATION INITIATOR FOR USE IN THE SAME, AND ALCOHOL COMPOUND AS RAW MATERIAL FOR THE POLYMERIZATION INITIATOR” (Shin-Etsu Chemical Co., Ltd., priority 2014, dated 2016).

Experiments:
Format in all cases: physicochemical
[1] = Stability of the initiator when the alkoxide is formed (migration of protective group); details: on synthesis of the alkoxide
From the text: Since the silicon-oxygen bond is generally stronger than the silicon-nitrogen bond, there is a possibility that exchange reaction between the silicon-nitrogen bond and the silicon-oxygen bond progresses within a molecule during synthesis of a silyl-protected amino group-containing alkoxide in the case in which a five-membered ring or six-membered ring structure containing a silicon-oxygen bond can be formed. Therefore, when polymerization is tried using, for example, a compound represented by the following general formula (0a) as a polymerization initiator, polymerization progresses from the amino group side, not from the alkoxide side, and a target polyalkylene glycol derivative cannot be obtained. In contrast, in the polymerization initiator (for example, the following formulas (1a) and (2a)) represented by the general formulas (1) and/or (2) for use in the present embodiment 2, production of the five-membered or six-membered ring containing a silicon-oxygen bond is suppressed by extending the length of a chain that connects nitrogen and oxygen that constitutes O^-M^+ to 4 or more, so that a stable structure can be formed in a state of being an alkoxide. As a result thereof, polymerization progresses from the alkoxide side, and the target polyalkylene glycol derivative can be obtained. [drawing 36]

[2] = Solubility of polymerization initiators in polymerization solvents (visual observation); set-up: key to solubility to polymerization solvents: Toluene / solubility to polymerization solvents: THF: Excellent: In the case in which cloudiness was not observed at all in the solution by visual observation, the initiator was shown as "excellent"; Poor: in the case in which cloudiness was observed or the initiator did not dissolve at all, or in the case in which the initiator decomposed when the alkoxide was formed from the initiator, the initiator was shown as "poor"; details: for solubility to polymerization solvents: THF: initiator dissolved in THF at 20 wt.%; for solubility to polymerization solvents: THF / solubility to polymerization solvents: Toluene: visual observation; for solubility to polymerization solvents: Toluene: initiator dissolved in toluene at 20 wt.%; for dissolution in the solvent(s): summary in words of Table 8, THF or toluene, 20 wt.%
From the text: Results of solubility of the initiators 1-2, 6-7, 9-10 and 12, reference initiators 3-5, 8 and 11, and comparative initiators 1 to 8 to polymerization solvents are shown below. THF in each of the products of the initiators 1-2, 6-7, 9-10 and 12, reference initiators 3-5, 8 and 11, and the comparative initiators 1 to 8 synthesized above was distilled away under reduced pressure to extract the polymerization initiators. The results obtained by dissolving each polymerization initiator in each polymerization solvent at a concentration of 20 wt.% are shown. […]

[3] = Visual check for salt precipitation and cloudiness in the THF solution after initiator synthesis
From the text: Among others, as the solvent for use in the [Pre-Step 2], the same solvent as will be used as the polymerization solvent in the subsequent [Step a] as will be described later is preferably used. The reason is because whether the polymerization initiator synthesized in the [Pre-Step 2] dissolves or not in the polymerization solvent for use in the [Step a] can be confirmed in advance during the synthesis of the polymerization initiator in the [Pre-Step 2]. […] […] By confirming whether the precipitation of a salt and […] of the polymerization initiator represented by the general formula (I) in THF, the solubility of the polymerization initiator in the polymerization solvent in the subsequent [Step a] can be confirmed in advance.
In a glove box under a nitrogen atmosphere, […], and after the mineral oil was washed with hexane to be separated, vacuum drying was performed for about two hours to obtain 0.50 g (12.5 mmol) of potassium hydride. Into the flask, 7.71 g of distilled THF was added with a syringe, and 4.44 g (12.8 mmol) of the compound represented by the general formula (iA) was dripped at normal temperature. Stirring was performed at normal temperature for 1 hour and then at 50°C for 2 hours, so that 12.40 g (1.02 mmol/g) of a THF solution of the compound represented by the general formula (IA) was produced. […]

| solubility to polymerization solvents: THF [2] | dissolution in the solvent(s) [2] | SMILES | stability of the initiator [1] | solubility to polymerization solvents: Toluene [2] | Precipitation of a salt and cloudiness ([3]; (IA) mass/THF solution mass=22.3 wt.%, prepared with potassium naphthalene) | Precipitation of a salt and cloudiness ([3]; (IA) mass/THF solution mass=39.8 wt.%, prepared with potassium hydride) |
| --- | --- | --- | --- | --- | --- | --- |
| Poor | did not dissolve in the solvents | C=CCN(CC=C)CCCO [Comparative initiator 3, reference compound] |  | Poor |  |  |
| Poor | did not dissolve in the solvents | O=C1c2ccccc2C(=O)N1CCCO [Comparative initiator 4, reference compound] |  | Poor |  |  |
| Poor | did not dissolve in the solvents | OCCCN(Cc1ccccc1)Cc1ccccc1 [Comparative initiator 7, reference compound] |  | Poor |  |  |
| Poor | did not dissolve in the solvents | CC(C)(C)OC(=O)N(CCCO)C(=O)OC(C)(C)C [Comparative initiator 8, reference compound] |  | Poor |  |  |
| Excellent | dissolved in a solvent | CC(C)(C)OC(=O)N(CCCOCCO)C(=O)OC(C)(C)C [Initiator 9] |  |  |  |  |
| Excellent | dissolved in a solvent | C=CCN(CC=C)CCCOCCO [Ref 3] |  |  |  |  |
| Excellent | dissolved in a solvent | C=CCN(CC=C)CCCOCCOCCO [Ref 4] |  |  |  |  |
| Excellent | dissolved in a solvent | O=C1c2ccccc2C(=O)N1CCCOCCOCCOCCO [Ref 5] |  |  |  |  |
| Excellent | dissolved in a solvent | OCCOCCOCCOCCCN(Cc1ccccc1)Cc1ccccc1 [Ref 8] |  |  |  |  |
|  | dissolved in a solvent | C=CCN(CC=C)CCCCCCO [Ref 11] |  | Excellent |  |  |
|  |  | CC[Si](CC)(CC)N(CCCOCCO)[Si](CC)(CC)CC [iA] |  |  | not observed | not observed |

| SMILES | solubility to polymerization solvents: THF [2] | dissolution in the solvent(s) [2] | stability of the initiator [1] | solubility to polymerization solvents: Toluene [2] | Precipitation of a salt and cloudiness ([3]; (IA) mass/THF solution mass=22.3 wt.%, prepared with potassium naphthalene) | Precipitation of a salt and cloudiness ([3]; (IA) mass/THF solution mass=39.8 wt.%, prepared with potassium hydride) |
| --- | --- | --- | --- | --- | --- | --- |
| CC[Si](CC)(CC)N(CCCO)[Si](CC)(CC)CC [Comparative initiator 1, reference compound] | Poor |  | changes in the position protected by a protective group progressed | Poor |  |  |
| C[Si](C)(C)N(CCCO)[Si](C)(C)C [Comparative initiator 2, reference compound] | Poor |  | changes in the position protected by a protective group progressed | Poor |  |  |
| CC(C)(C)[Si](C)(C)NCCCO [Comparative initiator 5, reference compound] | Poor |  | changes in the position protected by a protective group progressed | Poor |  |  |
| C[Si]1(C)CC[Si](C)(C)N1CCCO [Comparative initiator 6, reference compound] | Poor |  | changes in the position protected by a protective group progressed | Poor |  |  |
| CC[Si](CC)(CC)N(CCCOCCO)[Si](CC)(CC)CC [Initiator 1] | Excellent | dissolved in the solvent | stably existed |  |  |  |
| CC[Si](CC)(CC)N(CCCOCCOCCO)[Si](CC)(CC)CC [Initiator 2] | Excellent | dissolved in the solvent | stably existed |  |  |  |
| CC(C)(C)[Si](C)(C)NCCCOCCO [Initiator 6] | Excellent | dissolved in the solvent | stably existed |  |  |  |
| C[Si]1(C)CC[Si](C)(C)N1CCCOCCO [Initiator 7] | Excellent | dissolved in the solvent | stably existed |  |  |  |
| CC[Si](CC)(CC)N(CCCCCCO)[Si](CC)(CC)CC [Initiator 10] |  | dissolved in the solvent | stably existed | Excellent |  |  |
| C[Si]1(C)CC[Si](C)(C)N1CCCCCCO [Initiator 12] |  | dissolved in the solvent | stably existed | Excellent |  |  |
